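Five compound concentrations were applied to cells in 96-well plates for 48 hours; endpoints were derived by simple linear interpolation of the resulting dose-response curve. Here, GI50 denotes the concentration required for 50% inhibition of growth.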 Activity calls are given as the source filed them. Cut-off read from the data, not from the text of the source: active = GI50 up to about 1.1 µM and inactive = higher.
What was measured:
Assay in all cases: growth of human tumour cells (NCI), 48 h
[1] = tested on: SF-539
[2] = tested on: MDA-MB-435
[3] = tested on: SW-620
[4] = tested on: RXF 393
[5] = tested on: A498
[6] = tested on: NCI-H226
[7] = tested on: TK-10
[8] = tested on: NCI-H522
[9] = tested on: HL-60
[10] = tested on: BT-549
[11] = tested on: NCI-H460
[12] = tested on: SN12C
[13] = tested on: CAKI-1
[14] = tested on: MDA-N
[15] = tested on: CCRF-CEM
[16] = tested on: NCI-H23
[17] = tested on: HCT-15
[18] = tested on: OVCAR-5
[19] = tested on: SNB-19
[20] = tested on: SK-MEL-2

SMILES	GI50 [1]	GI50 [2]	GI50 [3]	GI50 [4]	GI50 [5]	GI50 [6]	GI50 [7]	GI50 [8]	GI50 [9]	GI50 [10]	GI50 [11]	GI50 [12]	GI50 [13]	GI50 [14]	GI50 [15]	GI50 [16]	GI50 [17] [µM]	GI50 [18]	GI50 [19]	GI50 [20]
Cc1ccc2c(c1C)CC1(Cc3c(C)ccc(C)c3C1=O)C2=O (stereo not drawn)	> 100 µM (inactive)	> 100 µM (inactive)	> 100 µM (inactive)	> 100 µM (inactive)	> 100 µM (inactive)	> 100 µM (inactive)	> 100 µM (inactive)	> 100 µM (inactive)	> 100 µM (inactive)	> 100 µM (inactive)	> 100 µM (inactive)	> 100 µM (inactive)	> 100 µM (inactive)	> 100 µM (inactive)	> 100 µM (inactive)	> 100 µM (inactive)	> 100	> 100 µM (inactive)	> 100 µM (inactive)	–
[N-]=[N+]=Nc1c(-c2ccccc2)c(=O)n(-c2ccccc2)c2ccccc12	> 100 µM (inactive)	60.8 µM (inactive)	> 100 µM (inactive)	45.7 µM (inactive)	77.8 µM (inactive)	91.4 µM (inactive)	> 100 µM (inactive)	27.7 µM (inactive)	> 100 µM (inactive)	> 100 µM (inactive)	46.5 µM (inactive)	60.8 µM (inactive)	–	45.3 µM (inactive)	> 100 µM (inactive)	80.5 µM (inactive)	38.2	–	–	–
C[n+]1ccc(/C2=C3\C=CC(=N3)/C(c3cc[n+](C)cc3)=c3/cc/c([nH]3)=C(\c3cc[n+](C)cc3)C3=N/C(=C(/c4cc[n+](C)cc4)C4C=CC2N4)C=C3)cc1	> 93.5 µM (inactive)	> 61.7 µM (inactive)	> 100 µM (inactive)	> 91.4 µM (inactive)	> 100 µM (inactive)	> 75.7 µM (inactive)	> 100 µM (inactive)	> 100 µM (inactive)	> 100 µM (inactive)	> 100 µM (inactive)	32.9 µM (inactive)	> 100 µM (inactive)	> 100 µM (inactive)	> 100 µM (inactive)	> 75.7 µM (inactive)	> 100 µM (inactive)	> 100	> 100 µM (inactive)	> 100 µM (inactive)	–
CC1(CF)SCc2nc3ccccc3n21 (stereo not drawn)	> 100 µM (inactive)	> 100 µM (inactive)	> 100 µM (inactive)	> 100 µM (inactive)	> 100 µM (inactive)	> 100 µM (inactive)	> 100 µM (inactive)	> 100 µM (inactive)	> 100 µM (inactive)	> 100 µM (inactive)	> 100 µM (inactive)	> 100 µM (inactive)	> 100 µM (inactive)	> 100 µM (inactive)	–	> 100 µM (inactive)	> 100	> 100 µM (inactive)	> 100 µM (inactive)	–
COc1nc(=O)n(C2CC(N=[N+]=[N-])C(CO)O2)cc1C (stereo not drawn)	> 100 µM (inactive)	> 100 µM (inactive)	> 100 µM (inactive)	–	–	> 100 µM (inactive)	> 100 µM (inactive)	> 100 µM (inactive)	> 100 µM (inactive)	> 100 µM (inactive)	> 100 µM (inactive)	> 100 µM (inactive)	–	> 100 µM (inactive)	> 100 µM (inactive)	> 100 µM (inactive)	> 100	> 100 µM (inactive)	> 100 µM (inactive)	> 100 µM (inactive)
O=CNc1ccc(S(=O)(=O)c2ccc(NC=O)cc2)cc1	> 100 µM (inactive)	> 100 µM (inactive)	> 100 µM (inactive)	–	–	–	> 100 µM (inactive)	> 100 µM (inactive)	> 100 µM (inactive)	> 100 µM (inactive)	> 100 µM (inactive)	> 100 µM (inactive)	> 100 µM (inactive)	> 100 µM (inactive)	> 100 µM (inactive)	> 100 µM (inactive)	> 100	> 100 µM (inactive)	> 100 µM (inactive)	> 100 µM (inactive)
NCCNCCNc1ccc(NCCNCCN)c2c1C(=O)c1c(O)ccc(O)c1C2=O	> 100 µM (inactive)	> 100 µM (inactive)	> 100 µM (inactive)	> 100 µM (inactive)	70 µM (inactive)	> 100 µM (inactive)	> 100 µM (inactive)	> 100 µM (inactive)	–	> 100 µM (inactive)	8.75 µM (inactive)	> 100 µM (inactive)	> 100 µM (inactive)	> 100 µM (inactive)	38.9 µM (inactive)	> 100 µM (inactive)	> 100	> 100 µM (inactive)	> 100 µM (inactive)	–
C=C1C(=O)OC2C3C(=C)[C@@H](OC(C)=O)CC3C(C)=CC(OC(=O)C(C)(OC(C)=O)C(C)OC(C)=O)[C@@H]12 (stereo partly drawn)	17.4 µM (inactive)	13.5 µM (inactive)	9.33 µM (inactive)	12.3 µM (inactive)	–	23.8 µM (inactive)	14.1 µM (inactive)	2.52 µM (inactive)	2.52 µM (inactive)	18.5 µM (inactive)	23.6 µM (inactive)	15.7 µM (inactive)	10.6 µM (inactive)	14.9 µM (inactive)	3.25 µM (inactive)	18.6 µM (inactive)	12.8	21.9 µM (inactive)	85.7 µM (inactive)	12.3 µM (inactive)

Reference: ChEMBL document CHEMBL1201862, “PubChem BioAssay data set” (2004)
